Measurements reported in US20210045385A1, “PYRIDAZINONE-SUBSTITUTED KETOXIMES AS HERBICIDES” (FMC Corporation, priority 2018, published 2021).

Legend:
Assay type in all cases: in vivo
[1] = test system: Italian ryegrass (Lolium multiflorum); assay: Test A preemergence, visual plant response rating
Excerpt: (§1) Seeds of plant species selected from barnyardgrass (Echinochloa crus-galli), kochia (Kochia scoparia), ragweed (common ragweed, Ambrosia elatior), Italian ryegrass (Lolium multiflorum), foxtail, giant (giant foxtail, Setaria faberii), foxtail, green (green foxtail, Setaria viridis), and pigweed (Amaranthus retroflexus) were planted into a blend of loam soil and sand and treated preemergence with a directed soil spray using test chemicals formulated in a non-phytotoxic solvent mixture which included a surfactant.
(§2) At the same time, plants selected from these weed species and also wheat (Triticum aestivum), corn (Zea mays), blackgrass (Alopecurus myosuroides), and galium (catchweed bedstraw, Galium aparine) were planted in pots containing the same blend of loam soil and sand and treated with postemergence applications of test chemicals formulated in the same manner. Plants ranged in height from 2 to 10 cm and were in the one- to two-leaf stage for the postemergence treatment. Treated plants and untreated controls were maintained in a greenhouse for approximately 10 days, after which time all treated plants were compared to untreated controls and visually evaluated for injury. Plant response ratings, summarized in Table A, are based on a 0 to 100 scale where 0 is no effect and 100 is complete control. A dash (-) response means no test result.

[2] = test system: barnyardgrass (Echinochloa crus-galli); assay: Test A preemergence, visual plant response rating
Excerpt: as §1, §2

[3] = test system: foxtail, giant (giant foxtail, Setaria faberii); assay: Test A preemergence, visual plant response rating
Excerpt: as §1, §2

kochia (Kochia scoparia) [4] = assay: Test A preemergence, visual plant response rating
Excerpt: as §1, §2

[5] = test system: pigweed (Amaranthus retroflexus); assay: Test A preemergence, visual plant response rating
Excerpt: as §1, §2

[6] = test system: Italian ryegrass (Lolium multiflorum); assay: Test A postemergence, visual plant response rating
Excerpt: as §1, §2

[7] = test system: barnyardgrass (Echinochloa crus-galli); assay: Test A postemergence, visual plant response rating
Excerpt: as §1, §2

[8] = test system: blackgrass (Alopecurus myosuroides); assay: Test A postemergence, visual plant response rating
Excerpt: as §1, §2

corn (Zea mays) [9] = assay: Test A postemergence, visual plant response rating
Excerpt: as §1, §2

[10] = test system: foxtail, giant (giant foxtail, Setaria faberii); assay: Test A postemergence, visual plant response rating
Excerpt: as §1, §2

[11] = test system: galium (catchweed bedstraw, Galium aparine); assay: Test A postemergence, visual plant response rating
Excerpt: as §1, §2

kochia (Kochia scoparia) [12] = assay: Test A postemergence, visual plant response rating
Excerpt: as §1, §2

[13] = test system: pigweed (Amaranthus retroflexus); assay: Test A postemergence, visual plant response rating
Excerpt: as §1, §2

[14] = test system: ragweed (common ragweed, Ambrosia elatior); assay: Test A postemergence, visual plant response rating
Excerpt: as §1, §2

[15] = test system: wheat (Triticum aestivum); assay: Test A postemergence, visual plant response rating
Excerpt: as §1, §2

[16] = test system: barnyardgrass (Echinochloa crus-galli); assay: Test B flooded paddy test, visual plant response rating; details: 250 g ai/ha, Flood, applied to paddy water, 2-leaf stage, evaluated after 13 to 15 days
Procedure: (§3) Plant species in the flooded paddy test selected from rice (Oryza sativa), sedge, umbrella (small-flower umbrella sedge, Cyperus difformis), ducksalad (Heteranhera limosa), and barnyardgrass (Echinochloa crus-galli) were grown to the 2-leaf stage for testing. At time of treatment, test pots were flooded to 3 cm above the soil surface treated by application of test compounds directly to the paddy water, and then maintained at that water depth for the duration of the test. Treated plants and controls were maintained in a greenhouse for 13 to 15 days, after which time all species were compared to controls and visually evaluated. […] A dash (-) response means no test result.

[17] = test system: ducksalad (Heteranhera limosa); assay: as above; details: 250 g ai/ha, Flood, applied to paddy water, 2-leaf stage, evaluated after 13 to 15 days
Procedure: as §3

rice (Oryza sativa) = assay: as above; details: 250 g ai/ha, Flood, applied to paddy water, 2-leaf stage, evaluated after 13 to 15 days
Procedure: as §3

[18] = test system: sedge, umbrella (small-flower umbrella sedge, Cyperus difformis); assay: as above; details: 250 g ai/ha, Flood, applied to paddy water, 2-leaf stage, evaluated after 13 to 15 days
Procedure: as §3

[19] = test system: Italian ryegrass (Lolium mutiflorum); assay: Test C preemergence, visual plant response rating; details: 1000 g ai/ha
Excerpt: (§4) Seeds of plant species selected from barnyardgrass (Echinochloa crus-galli), kochia (Bassia scoparia), ragweed (common ragweed, Ambrosia artemisiifolia), Italian ryegrass (Lolium mutiflorum), foxtail, giant (giant foxtail, Setaria faberi), foxtail, green (green foxtail, Setaria viridis), and pigweed (Amaranthus retroflexus) were planted into a blend of loam soil and sand and treated preemergence with a directed soil spray using test chemicals formulated in anon-phytotoxic solvent mixture which included a surfactant.
as §2, with “with post emergence” for “with postemergence”, “10 d,” for “10 days,”, “Table C,” for “Table A,”, “dash (-)response” for “dash (-) response”

[20] = test system: barnyardgrass (Echinochloa crus-galli); assay: Test C preemergence, visual plant response rating; details: 1000 g ai/ha
Excerpt: as §4
as §2, with “with post emergence” for “with postemergence”, “10 d,” for “10 days,”, “Table C,” for “Table A,”, “dash (-)response” for “dash (-) response”

[21] = test system: foxtail, giant (giant foxtail, Setaria faberi); assay: Test C preemergence, visual plant response rating; details: 1000 g ai/ha
Excerpt: as §4
as §2, with “with post emergence” for “with postemergence”, “10 d,” for “10 days,”, “Table C,” for “Table A,”, “dash (-)response” for “dash (-) response”

kochia (Bassia scoparia) [22] = assay: Test C preemergence, visual plant response rating; details: 1000 g ai/ha
Excerpt: as §4
as §2, with “with post emergence” for “with postemergence”, “10 d,” for “10 days,”, “Table C,” for “Table A,”, “dash (-)response” for “dash (-) response”

[23] = test system: pigweed (Amaranthus retroflexus); assay: Test C preemergence, visual plant response rating; details: 1000 g ai/ha
Excerpt: as §4
as §2, with “with post emergence” for “with postemergence”, “10 d,” for “10 days,”, “Table C,” for “Table A,”, “dash (-)response” for “dash (-) response”

[24] = test system: ragweed (common ragweed, Ambrosia artemisiifolia); assay: Test C preemergence, visual plant response rating; details: 1000 g ai/ha
Excerpt: as §4
as §2, with “with post emergence” for “with postemergence”, “10 d,” for “10 days,”, “Table C,” for “Table A,”, “dash (-)response” for “dash (-) response”

[25] = test system: Italian ryegrass (Lolium mutiflorum); assay: Test C postemergence, visual plant response rating; details: Test C, postemergence, 1000 g ai/ha
Excerpt: as §4
as §2, with “with post emergence” for “with postemergence”, “10 d,” for “10 days,”, “Table C,” for “Table A,”, “dash (-)response” for “dash (-) response”

[26] = test system: barnyardgrass (Echinochloa crus-galli); assay: Test C postemergence, visual plant response rating; details: Test C, postemergence, 1000 g ai/ha
Excerpt: as §4
as §2, with “with post emergence” for “with postemergence”, “10 d,” for “10 days,”, “Table C,” for “Table A,”, “dash (-)response” for “dash (-) response”

[27] = test system: blackgrass (Alopecurus myosuroides); assay: Test C postemergence, visual plant response rating; details: Test C, postemergence, 1000 g ai/ha
Excerpt: as §4
as §2, with “with post emergence” for “with postemergence”, “10 d,” for “10 days,”, “Table C,” for “Table A,”, “dash (-)response” for “dash (-) response”

corn (Zea mays) [28] = assay: Test C postemergence, visual plant response rating; details: Test C, postemergence, 1000 g ai/ha
Excerpt: as §4
as §2, with “with post emergence” for “with postemergence”, “10 d,” for “10 days,”, “Table C,” for “Table A,”, “dash (-)response” for “dash (-) response”

[29] = test system: foxtail, giant (giant foxtail, Setaria faberi); assay: Test C postemergence, visual plant response rating; details: Test C, postemergence, 1000 g ai/ha
Excerpt: as §4
as §2, with “with post emergence” for “with postemergence”, “10 d,” for “10 days,”, “Table C,” for “Table A,”, “dash (-)response” for “dash (-) response”

[30] = test system: galium (catchweed bedstraw, Galium aparine); assay: Test C postemergence, visual plant response rating; details: Test C, postemergence, 1000 g ai/ha
Excerpt: as §4
as §2, with “with post emergence” for “with postemergence”, “10 d,” for “10 days,”, “Table C,” for “Table A,”, “dash (-)response” for “dash (-) response”

kochia (Bassia scoparia) [31] = assay: Test C postemergence, visual plant response rating; details: Test C, postemergence, 1000 g ai/ha
Excerpt: as §4
as §2, with “with post emergence” for “with postemergence”, “10 d,” for “10 days,”, “Table C,” for “Table A,”, “dash (-)response” for “dash (-) response”

[32] = test system: pigweed (Amaranthus retroflexus); assay: Test C postemergence, visual plant response rating; details: Test C, postemergence, 1000 g ai/ha
Excerpt: as §4
as §2, with “with post emergence” for “with postemergence”, “10 d,” for “10 days,”, “Table C,” for “Table A,”, “dash (-)response” for “dash (-) response”

[33] = test system: ragweed (common ragweed, Ambrosia artemisiifolia); assay: Test C postemergence, visual plant response rating; details: Test C, postemergence, 1000 g ai/ha
Excerpt: as §4
as §2, with “with post emergence” for “with postemergence”, “10 d,” for “10 days,”, “Table C,” for “Table A,”, “dash (-)response” for “dash (-) response”

[34] = test system: wheat (Triticum aestivum); assay: Test C postemergence, visual plant response rating; details: Test C, postemergence, 1000 g ai/ha
Excerpt: as §4
as §2, with “with post emergence” for “with postemergence”, “10 d,” for “10 days,”, “Table C,” for “Table A,”, “dash (-)response” for “dash (-) response”

[35] = 125 g ai/ha, preemergence, 0 to 100 scale, 0 no effect, 100 complete control
[36] = 500 g ai/ha Preemergence, approx. 10 days
[37] = 500 g ai/ha, postemergence, 0 is no effect, 100 is complete control
[38] = Postemergence, 125 g ai/ha, 0 to 100 scale (0 no effect, 100 complete control)

Cc1nn(C)c(=O)c(/C(=N\OC(C)C)c2ccc(F)c3ccccc23)c1O [Compound 89]
Ryegrass, Italian plant response rating [1, 35]: 90
Ryegrass, Italian plant response rating (0 to 100 scale) [1, 36]: 100
Barnyardgrass plant response rating [2, 35]: 70
Barnyardgrass plant response rating (0 to 100 scale) [2, 36]: 100
Foxtail, Giant plant response rating [3, 35]: 90
Foxtail, Giant plant response rating (0 to 100 scale) [3, 36]: 100
Kochia plant response rating (kochia (Kochia scoparia) [4]; [35]): 60
Kochia plant response rating (0 to 100 scale) (kochia (Kochia scoparia) [4]; [36]): 90
Pigweed plant response rating [5, 35]: 100
Pigweed plant response rating (0 to 100 scale) [5, 36]: 100
Ryegrass, Italian plant response rating (0 to 100 scale) [6, 37]: 100
Ryegrass, Italian plant response rating [6, 38]: 100
Barnyardgrass plant response rating (0 to 100 scale) [7, 37]: 60
Barnyardgrass plant response rating [7, 38]: 40
Blackgrass plant response rating (0 to 100 scale) [8, 37]: 100
Blackgrass plant response rating [8, 38]: 90
Corn plant response rating (0 to 100 scale) (corn (Zea mays) [9]; [37]): 30
Corn plant response rating (corn (Zea mays) [9]; [38]): 20
Foxtail, Giant plant response rating (0 to 100 scale) [10, 37]: 80
Foxtail, Giant plant response rating [10, 38]: 70
Galium plant response rating (0 to 100 scale) [11, 37]: 90
Galium plant response rating [11, 38]: 90
Kochia plant response rating (0 to 100 scale) (kochia (Kochia scoparia) [12]; [37]): 80
Kochia plant response rating (kochia (Kochia scoparia) [12]; [38]): 70
Pigweed plant response rating (0 to 100 scale) [13, 37]: 100
Pigweed plant response rating [13, 38]: 80
Ragweed plant response rating (0 to 100 scale) [14, 37]: 90
Ragweed plant response rating [14, 38]: 90
Wheat plant response rating (0 to 100 scale) [15, 37]: 70
Wheat plant response rating [15, 38]: 50
Plant response rating, Barnyardgrass (0 to 100 scale, 0 is no effect, 100 is complete control) [16]: 0
Plant response rating, Ducksalad (0 to 100 scale, 0 is no effect, 100 is complete control) [17]: 0
Plant response rating, Rice (0 to 100 scale, 0 is no effect, 100 is complete control) (rice (Oryza sativa)): 0
Plant response rating, Sedge, Umbrella (0 to 100 scale, 0 is no effect, 100 is complete control) [18]: 0

CC(C)O/N=C(/c1c(O)cnn(C)c1=O)c1cccc2ccccc12 [Compound 223]
Ryegrass, Italian plant response rating (0 to 100 scale) [19]: 0
Barnyardgrass plant response rating (0 to 100 scale) [20]: 0
Foxtail, Giant plant response rating (0 to 100 scale) [21]: 0
Kochia plant response rating (0 to 100 scale) (kochia (Bassia scoparia) [22]): 0
Pigweed plant response rating (0 to 100 scale) [23]: 100
Ragweed plant response rating (0 to 100 scale) [24]: 20
Ryegrass, Italian plant response rating (0 to 100 scale) [25]: 0
Barnyardgrass plant response rating (0 to 100 scale) [26]: 20
Blackgrass plant response rating (0 to 100 scale) [27]: 0
Corn plant response rating (0 to 100 scale) (corn (Zea mays) [28]): 0
Foxtail, Giant plant response rating (0 to 100 scale) [29]: 30
Galium plant response rating (0 to 100 scale) [30]: 90
Kochia plant response rating (0 to 100 scale) (kochia (Bassia scoparia) [31]): 0
Pigweed plant response rating (0 to 100 scale) [32]: 40
Ragweed plant response rating (0 to 100 scale) [33]: 50
Wheat plant response rating (0 to 100 scale) [34]: 0

CO/N=C(\c1c(O)cnn(C)c1=O)c1cccc2ccccc12 [Compound 238]
Ryegrass, Italian plant response rating (0 to 100 scale) [19]: 20
Barnyardgrass plant response rating (0 to 100 scale) [20]: 0
Foxtail, Giant plant response rating (0 to 100 scale) [21]: 40
Kochia plant response rating (0 to 100 scale) (kochia (Bassia scoparia) [22]): 30
Pigweed plant response rating (0 to 100 scale) [23]: 100
Ragweed plant response rating (0 to 100 scale) [24]: 90
Ryegrass, Italian plant response rating (0 to 100 scale) [25]: 0
Barnyardgrass plant response rating (0 to 100 scale) [26]: 20
Blackgrass plant response rating (0 to 100 scale) [27]: 20
Corn plant response rating (0 to 100 scale) (corn (Zea mays) [28]): 0
Foxtail, Giant plant response rating (0 to 100 scale) [29]: 40
Galium plant response rating (0 to 100 scale) [30]: 90
Kochia plant response rating (0 to 100 scale) (kochia (Bassia scoparia) [31]): 80
Pigweed plant response rating (0 to 100 scale) [32]: 90
Ragweed plant response rating (0 to 100 scale) [33]: 30
Wheat plant response rating (0 to 100 scale) [34]: 0
